Assay results reported in patent US20130104445A1, “ESSENTIAL OILS AND THEIR COMPOUNDS AS STINK BUG REPELLENTS” (priority 2011, published 2013).

System: BMSB adult or nymph antenna
Experiment: GC-EAD antennal responses to essential oil headspace (SPME) or synthetic SSB pheromone mixture
Parameters: species or system Halyomorpha halys
Experimental: Headspace volatiles from several essential oils (1 ml each in a closed 20 ml glass vial) were sampled via Solid-Phase Micro-Extraction (SPME) (CAR/PDMS, 85 μm, Supelco, Bellefonte, Pa.) for 30 sec before GC-EAD and GC-MS analyses.
BMSB nymphs and adults for electrophysiological study were taken from a lab colony originally collected from Pennsylvania, U.S.A., during the overwintering period.
SPME samples of the various essential oils were injected splitless into a Varian CP-3800 GC equipped with a polar column (HP-INNOWAX; 30 m×0.53 mm×1.0 μm film thickness; Agilent Technologies, Wilmington, Del., USA) and a 1:1 effluent splitter that allowed simultaneous flame ionization detection (FID) and electroantennographic detection (EAD) of BMSB adult or nymph antenna to the separated volatile compounds. Helium was used as the carrier gas, and the injector and detector temperatures were 250° C. and 300° C., respectively. Column temperature was 50° C. for 1 min, rising to 240° C. at 10° C./min, and then held for 10 min. The outlet for the EAD was held in a humidified air stream flowing at 0.5 m/sec over the antennal preparation. EAD recordings were made using silver wire-glass capillary electrodes filled with Beadle-Ephrussi Ringer on freshly cut antennae. The antennal signals were stored and analyzed on a PC equipped with a serial IDAC interface box and the program EAD ver. 2.5 (Syntech, Hilversum, The Netherlands). The same GC-EAD recording procedure was also employed on the BMSB antennae against a synthetic mixture of the Spined soldier bug aggregation pheromone components (trans-2-hexenal, benzyl alcohol, and α-terpineol; 200 ng/μl each in hexane, 2 μl injected).
Antennally active compounds (FID peaks) in the SPME samples of essential oils were identified by GC-MS on an HP 6890 GC series coupled with an HP 5973 Mass Selective Detector using the same type of GC column and conditions as described above. Compounds were identified by comparison of retention times with those of authentic standards and with mass spectra of standards.

[1] = synthetic mixture of SSB aggregation pheromone components, FIG. 12
[2] = from the lemongrass oil, FIG. 4

CCC/C=C/C=O [trans-2-hexenal]
EAD response of BMSB antennae [1]: strong antennal responses

P/I-menthones
EAD response of BMSB antennae (from geranium oil, FIG. 10): significant (strongly or weakly) EAD-responses | EAD response of BMSB antennae (from pennyroyal oil, FIG. 11): significant (strongly or weakly) EAD-responses

CC(C)=CCC/C(C)=C/CO [geraniol]
EAD response of BMSB antennae (from geranium oil, FIG. 10): significant (strongly or weakly) EAD-responses

CC12CCC(CC1)C(C)(C)O2 [1,8-cineole]
EAD response of BMSB antennae (from rosemary oil, FIG. 8): significant (strongly or weakly) EAD-responses

CC(C)=CCCC(C)CCO (stereo not drawn) [β-citronellol]
EAD response of BMSB antennae (from geranium oil, FIG. 10): significant (strongly or weakly) EAD-responses

COC(=O)c1ccccc1 [methyl benzoate]
EAD response of BMSB antennae (from ylang ylang oil, FIG. 7): significant (strongly or weakly) EAD-responses

cis/trans-rose oxides
EAD response of BMSB antennae (from geranium oil, FIG. 10): significant (strongly or weakly) EAD-responses

CC(C)=CCC/C(C)=C/C=O [E-citral]
EAD response of BMSB antennae [2]: strongly responded

CCCCCC(=O)CCC [4-nonanone]
EAD response of BMSB antennae [2]: weakly

CC(=O)OCc1ccccc1 [benzyl acetate]
EAD response of BMSB antennae (from ylang ylang oil, FIG. 7): significant (strongly or weakly) EAD-responses

CC12CCC(CC1=O)C2(C)C (stereo not drawn) [camphor]
EAD response of BMSB antennae (from rosemary oil, FIG. 8): significant (strongly or weakly) EAD-responses

CC(C)=CCC/C(C)=C\C=O [Z-citral]
EAD response of BMSB antennae [2]: strongly responded

C=C1CC[C@@H]2[C@H]1[C@H]1[C@H](C(C)C)CC[C@]12C [β-bourbernene]
EAD response of BMSB antennae (from geranium oil, FIG. 10): significant (strongly or weakly) EAD-responses

CC1=CCC(C(C)(C)O)CC1 (stereo not drawn) [α-terpineol]
EAD response of BMSB antennae [1]: weak activity

COC(=O)c1ccccc1O [methyl salicylate]
EAD response of BMSB antennae (from wintergreen oil, FIG. 9): significant (strongly or weakly) EAD-responses

OCc1ccccc1 [benzyl alcohol]
EAD response of BMSB antennae [1]: strong antennal responses

C=CCc1ccc(O)c(OC)c1 [eugenol]
EAD response of BMSB antennae (from clove oil, FIG. 6): significant (strongly or weakly) EAD-responses

COc1ccc(C)cc1 [4-methylanisole]
EAD response of BMSB antennae (from ylang ylang oil, FIG. 7): significant (strongly or weakly) EAD-responses

l-carvone
EAD response of BMSB antennae (from spearmint oil, FIG. 5): significant (strongly or weakly) EAD-responses

CC(C)=C1CC[C@@H](C)CC1=O [pulegone]
EAD response of BMSB antennae (from pennyroyal oil, FIG. 11): significant (strongly or weakly) EAD-responses
